Measurements: patent US11912699B2, “Tau-protein targeting compounds and associated” (Arvinas Operations, Inc., priority 2019, dated 2024)

Key:
Tau P301L = biological target: T1, Tau P301L (Homo sapiens, UniProt P10636, P618L); experiment: In vitro tau degradation assay in CHOK1 Tau P301L cells (sarkosyl insoluble tau, WES); type: cell-based; conditions: for remaining activity at 1 µM: CHO-K1, remaining tau protein in sarkosyl insoluble pellet, CHOK1 Tau P301L cells treated 48 hours with test compound at 1 μM, doxycycline removed for the last 24 hours, relative to DMSO doxycycline control, read-out: Tau Protein Degradation effect at 1 μM
T1 construct: expressed in transfected cells
T1 sequence (P10636 1-441 isoform P10636-8 P301L): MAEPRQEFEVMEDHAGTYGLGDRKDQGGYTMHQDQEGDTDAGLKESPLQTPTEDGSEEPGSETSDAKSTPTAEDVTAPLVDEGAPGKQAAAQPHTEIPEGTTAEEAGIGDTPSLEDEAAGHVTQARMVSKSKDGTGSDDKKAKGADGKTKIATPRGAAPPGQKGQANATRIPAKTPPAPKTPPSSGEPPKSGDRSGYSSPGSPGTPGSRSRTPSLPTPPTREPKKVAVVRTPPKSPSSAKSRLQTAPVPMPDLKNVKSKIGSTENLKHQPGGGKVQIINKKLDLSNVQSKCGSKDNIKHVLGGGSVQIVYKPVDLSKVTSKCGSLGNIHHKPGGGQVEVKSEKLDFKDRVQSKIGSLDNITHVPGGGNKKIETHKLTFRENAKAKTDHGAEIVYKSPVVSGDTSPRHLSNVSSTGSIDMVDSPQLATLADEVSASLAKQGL
Outline: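 Sarkosyl-insoluble pellet tau, measured by WES capillary immunoassay (Tau1 antibody), was scored against DMSO doxycycline control as ≤50% or >50% remaining. Cells were CHOK1 clone D1 expressing Tau P301L under doxycycline (1 μg/ml), given 1 μM compound for 48 h with doxycycline withdrawn during the last 24 h.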

P301L tau = biological target: T2, P301L tau (Homo sapiens, UniProt P10636, P618L); experiment: Tau degradation in doxycycline-induced ChoK1-Tau P301L clone D1 cells; type: cell-based
T2 construct: expressed in transfected cells
T2 sequence (P10636 1-441 isoform P10636-8 P301L): as above
Protocol: FIGS. 2A, 2B, and 2C. Tau targeting bifunctional molecules are potent P301L tau degraders in vitro, which depends upon both binding to the tau binding moiety and the E3 ligase binding moiety (ULM). (2A) Tau expression was induced by addition (+) of doxycycline (1 μg/ml) to ChoK1-Tau P301L clone D1 for 24 hours followed by a 24 hour doxycycline washout period where only bifunctional molecule was present.

[1] = biological target: T3, seeded conformational tau (MC1) (Homo sapiens, UniProt P10636, P618L); experiment: Tg2508 ex-vivo tau seeding assay in ChoK1-Tau P301L cells (MC1 high content imaging); type: cell-based, mice; conditions: single parenteral treatment 15 mpk, 24 hours; MC1 spot intensity in ChoK1-Tau P301L cells
T3 construct: tissue Taconic; host or cells: cortex / hippocampus of Tg2508 transgenic mice, sarkosyl-insoluble fraction or brain extract
T3 sequence (P10636 1-383 isoform P10636-6 P243L): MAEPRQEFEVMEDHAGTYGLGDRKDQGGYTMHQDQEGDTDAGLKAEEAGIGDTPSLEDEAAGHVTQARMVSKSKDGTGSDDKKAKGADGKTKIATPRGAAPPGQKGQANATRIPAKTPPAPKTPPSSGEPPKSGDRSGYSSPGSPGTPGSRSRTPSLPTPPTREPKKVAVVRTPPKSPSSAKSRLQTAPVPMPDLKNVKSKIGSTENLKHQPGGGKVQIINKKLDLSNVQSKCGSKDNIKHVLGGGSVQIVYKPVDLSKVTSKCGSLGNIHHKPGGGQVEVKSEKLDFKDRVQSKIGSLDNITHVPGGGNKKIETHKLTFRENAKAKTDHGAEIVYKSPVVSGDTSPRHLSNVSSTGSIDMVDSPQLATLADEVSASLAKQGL
Protocol: FIGS. 4A, 4B, and 4C. Briefly, ChoK1-Tau P301L cells were treated with K18 tau preformed fibrils (PFFs) or extracts from Tg2508 brain samples (as described in Materials and Methods; PFF generation modified from Holmes et al. PNAS. 2014. Proteopathic tau seeding predicts tauopathy in vivo. Oct. 111 (41) E4376-85). Seeded conformational tau species are detected by MC1 antibody positivity and quantified as MC1 spot average intensity per cell on the Image Express™ high content platform.
In vitro tau Seeding Assay for FIGS. 4A, 4B, and 4C. Tau P301L T-Rex CHO Cells were plated on BioCoat Collagen 96 well microplates that were also poly-D-lysine coated. Media was removed, cells were washed with DPBS, trypsinized and plated at 50,000 cells per mL with Doxycycline […] and no doxycycline control for 24 hours. […]

[2] = test system: seeding competent tau species (MC1-positive seeded conformational tau) in ChoK1-Tau P301L cells; experiment: Tg2508 ex-vivo seeding of P301L CHO cells, MC1 high content image analysis; type: cell-based, Tg2508 mice; conditions: single parenteral treatment 15 mpk, 24 hours
Protocol: FIGS. 4A, 4B, and 4C. […] Briefly, ChoK1-Tau P301L cells were treated with K18 tau preformed fibrils (PFFs) or extracts from Tg2508 brain samples. Seeded conformational tau species were detected by MC1 antibody positivity and quantified as MC1 spot average intensity per cell on the Image Express high content platform.

[3] = 10-fold molar excess pomalidomide
[4] = similar competition (10-fold molar excess) with flortaucipir

## Cn1c2ccncc2c2ccc(C3CCN([C@H]4C[C@@H](OC5CCN(CCOc6ccc7c(c6)C(=O)N(C6CCC(=O)NC6=O)C7=O)CC5)C4)CC3)cc21 (stereo partly drawn) [Compound 515, 2-(2,6-dioxopiperidin-3-yl)-5-(2-(4-((1s,3s)-3-(4-(5-methyl-5H-pyrido[4,3-b]indol-7-yl)piperidin-1-yl)cyclobutoxy)piperidin-1-yl)ethoxy) isoindoline-1,3-dione]
Tau P301L
  remaining activity at 1 µM: < 50%

## Cn1c2ccncc2c2ccc(-c3ccc(O[C@H]4C[C@H](OC5CCN(CCCCCOc6ccc7c(c6)C(=O)N(C6CCC(=O)NC6=O)C7=O)CC5)C4)nc3)cc21 (stereo partly drawn) [Compound 82]
P301L tau; 250 nM, 125 nM or 50 nM, ChoK1-Tau P301L clone D1, vs 0.1% DMSO
  degradation of tau: concentration-dependent degradation of tau
P301L tau; [3]
  tau degradation under competition with E3 ligase ligand pomalidomide: completely inhibited
P301L tau; ChoK1-Tau P301L clone D1, 24 h doxycycline (1 μg/ml) induction, then 24 h washout with only compound present, vs 0.1% DMSO
  DC50: < 50 nM
P301L tau; [4]
  tau degradation under competition with tau warhead ligand flortaucipir: Partial inhibition
Tau P301L; [3]
  tau degradation under competition with E3 ligase ligand: completely inhibited
Tau P301L; ChoK1-Tau P301L clone D1, doxycycline 1 μg/ml, 250, 125, 50 nM
  DC50: < 50 nM
Tau P301L; ChoK1-Tau P301L clone D1, 250 nM, 125 nM or 50 nM
  degradation of tau compared to 0.1% DMSO control: concentration-dependent degradation of tau
Tau P301L; [4]
  tau degradation under competition with tau warhead ligand: Partial inhibition
[1]
  seeding competent tau species in Tg2508 cortical brain extracts: effectively degraded
[2]
  seeding competent tau species in Tg2508 cortical brain extracts (MC1 spot average intensity per cell): effectively degraded

## Cn1c2ccncc2c2ccc(-c3ccc(O[C@H]4C[C@H](CN5CCC(CCCCCOc6ccc7c(c6)C(=O)N(C6CCC(=O)NC6=O)C7=O)CC5)C4)nc3)cc21 (stereo partly drawn) [Compound 393, 2-(2,6-dioxopiperidin-3-yl)-5-((5-(1-(((1r,3r)-3-((5-(5-methyl-5H-pyrido[4,3-b]indol-7-yl)pyridin-2-yl)oxy)cyclobutyl)methyl)piperidin-4-yl)pentyl)oxy) isoindoline-1,3-dione]
Tau P301L
  remaining activity at 1 µM: < 50%

## Cc1ncsc1-c1ccc([C@H](C)NC(=O)[C@@H]2C[C@@H](O)CN2C(=O)[C@@H](c2cc(OCCN3CCC(OC4CN(c5ccc(-c6ccc7c8cnccc8n(C)c7c6)cn5)C4)CC3)no2)C(C)C)cc1 (single isomer, unassigned) [Compound 467]
Tau P301L
  remaining activity at 1 µM: > 50%

## O=C1CCC(N2C(=O)c3ccc(N4CCN(CCC5CCN(c6ccc(-c7c(F)cc8c9cnccc9n(C(F)F)c8c7F)cn6)CC5)CC4)cc3C2=O)C(=O)N1 (stereo not drawn) [Compound 679, 5-(4-(2-(1-(5-(5-(difluoromethyl)-6,8-difluoro-5H-pyrido[4,3-b]indol-7-yl)pyridin-2-yl)piperidin-4-yl)ethyl)piperazin-1-yl)-2-(2,6-dioxopiperidin-3-yl)isoindoline-1,3-dione]
Tau P301L
  remaining activity at 1 µM: < 50%

## Cn1c2ccncc2c2ccc(-c3ccc(O[C@H]4C[C@H](OC5CCN(CCN6CCN(c7ccc8c(c7)C(=O)N(C7CCC(=O)NC7=O)C8=O)CC6)CC5)C4)nc3)cc21 (stereo partly drawn) [Compound 341, 2-(2,6-dioxopiperidin-3-yl)-5-(4-(2-(4-((1r,3r)-3-((5-(5-methyl-5H-pyrido[4,3-b]indol-7-yl)pyridin-2-yl)oxy)cyclobutoxy)piperidin-1-yl)ethyl)piperazin-1-yl) isoindoline-1,3-dione]
Tau P301L
  remaining activity at 1 µM: > 50%

## O=C1CCC(N2C(=O)c3ccc(OCCCN4CCC5(CC4)CN(c4ncc(-c6ccc7c8cnccc8n(C(F)F)c7c6)cc4F)C5)cc3C2=O)C(=O)N1 (stereo not drawn) [Compound 568, 5-(3-(2-(5-(5-(difluoromethyl)-5H-pyrido[4,3-b]indol-7-yl)-3-fluoropyridin-2-yl)-2,7-diazaspiro[3.5]nonan-7-yl)propoxy)-2-(2,6-dioxopiperidin-3-yl)isoindoline-1,3-dione]
Tau P301L
  remaining activity at 1 µM: < 50%

## O=C1CCC(N2C(=O)c3ccc(N4CCN(CCC5CC6(C5)CN(c5ccc(-c7ccc8c(c7)[nH]c7ccncc78)cn5)C6)CC4)cc3C2=O)C(=O)N1 (stereo not drawn) [Compound 599, 5-(4-(2-(2-(5-(5H-pyrido[4,3-b]indol-7-yl)pyridin-2-yl)-2-azaspiro[3.3]heptan-6-yl)ethyl)piperazin-1-yl)-2-(2,6-dioxopiperidin-3-yl)isoindoline-1,3-dione]
Tau P301L
  remaining activity at 1 µM: < 50%

## Cn1c2ccncc2c2ccc(-c3ccc(O[C@H]4C[C@H](N(C)C5CC6(C5)CN(CCOc5ccc7c(c5)C(=O)N(C5CCC(=O)NC5=O)C7=O)C6)C4)nc3)cc21 (stereo partly drawn) [Compound 392, 2-(2,6-dioxopiperidin-3-yl)-5-(2-(6-(methyl((1r,3r)-3-((5-(5-methyl-5H-pyrido[4,3-b]indol-7-yl)pyridin-2-yl)oxy)cyclobutyl)amino)-2-azaspiro[3.3]heptan-2-yl)ethoxy) isindoline-1,3-dione]
Tau P301L
  remaining activity at 1 µM: > 50%
